From article PMC6687188, “Novel lactate dehydrogenase inhibitors with in vivo efficacy against Cryptosporidium parvum” (PLoS Pathogens, 2019)

Target: recombinant CpLDH protein (Cryptosporidium parvum, UniProt Q9GT92, F198L/K295E/R251K)

SMILES | MEAN CpLDH INHIBITION (%)
N#CCCN(c1ccc(C=O)cc1)S(=O)(=O)c1ccccc1 [NSC637914] | -47.07%
Cc1cc(O)c(C(C)C)cc1C1(c2cc(C(C)C)c(O)cc2C)OC(=O)c2ccccc21 [NSC2186] | -64.59%
Cc1ccc(S(=O)(=O)NC(=O)NC2=NC(C)(C)N(c3ccc(Cl)c(Cl)c3)C(N)=N2)cc1 [NSC603624] | -12.73%
COc1ccc2c(O)c3[n+](cc2c1OC)CCc1cc2c(cc1-3)OCO2 [NSC123390] | -31.27%
COC(=O)[C@@H]1[C@H](O)[C@H](C)[C@H](O)[C@H](C)/C=C\C=C(/C)C(=O)Nc2c(C)c(OC(C)=O)c3c(c2O)C(=O)C(C)=C2OCOC(=C23)/C(C)=C/[C@@](C)(O)[C@H](O)[C@@H](C)[C@H]1O [NSC19990] | -27.23%
C=C1C(=O)OC2C1CC1OC2C(C)CCC/C(C)=C\CCC1(C)O (stereo not drawn) [NSC282752] | -63.64%
COC(=O)c1c[nH]c2c1-c1cc(C(=O)OCc3ccccc3)n(S(=O)(=O)c3ccc(C)cc3)c1C(=O)C2=O [NSC679524] | -184.78%
Oc1ccc(/C=N/NC(=S)Nc2cccnc2)nc1 [NSC185065] | -8.17%
O=C(N=Nc1c(O)[nH]c2c(Cl)cc(Cl)cc12)c1ccccc1O [NSC320864] | -26.08%
CCCC[S+]([O-])CC(CO)NC(=O)/C=C/c1c(C)[nH]c(=O)[nH]c1=O (stereo not drawn) [NSC241509] | -30.83%
CN(C)[C@@H]1C(=O)C(C(N)=O)=C(O)[C@@]2(O)C(=O)C3=C(O)c4c(O)cccc4C[C@H]3C[C@@H]12 [NSC51812] | -26.06%
O=C(CCCN1CCC(C(O)c2ccc(F)cc2)CC1)c1ccc(F)cc1 (stereo not drawn) [NSC343513] | -0.97%
N#CC(=C1C=CC(=NO)C=C1)c1ccc(Cl)cc1 [NSC405158] | -30.77%
CC(=O)NCCCCCCNC(C)=O [NSC95580] | -114.38%
Cc1c2c(cc3c1[nH]c1ccccc13)C=NCC2 [NSC86100] | -9.40%
O=C1Cc2c(-c3ccccc3)cc(-c3cccc(Cl)c3)nc2-c2ccccc2N1 [NSC684480] | -22.58%
CC(/C=N/N=C(N)N)=N\N=C(N)N [NSC32946] | -50.60%
COC(=O)[C@@H]1[C@H](O)[C@H](C)[C@H](O)[C@H](C)/C=C\C=C(/C)C(=O)Nc2c(C)c(OC(C)=O)c3c(c2O)C(=O)C(C)=C2OCOC(=C23)/C(C)=C/[C@@](C)(O)[C@H](O)[C@@H](C)[C@H]1OC(C)=O [NSC156215] | -35.58%
O=C1Nc2ccc(Br)cc2/C1=C/C(=O)c1ccccc1 [NSC294961] | -25.63%
Cc1cc(O)c2c(c1)C(=O)c1cc(O)cc(O)c1C2=O [NSC408120] | -6.79%
COc1cccc2c1C(=O)c1c(O)c3c(c(O)c1C2=O)C[C@@](O)(C(C)=O)C[C@@H]3OC1CC(N(Cc2ccccc2)Cc2ccccc2)C(O)C(C)O1.Cl (stereo partly drawn) [NSC268242] | -40.28%
CN(C)c1cccc(F)c1C(=O)NC(=O)Nc1ccc(Cl)cc1 [NSC603108] | -29.93%
CCN(CC)CCNC(=O)c1nn(-c2ccc(Cl)cc2)c2c1CCc1cc(OC)ccc1-2 [NSC288010] | -45.22%
N#Cc1cn([C@@H]2O[C@H](CO)[C@@H](O)[C@H]2O)c2ncnc(N)c12 [NSC63701] | -0.31%
Cc1cc(-c2nc3ccccc3s2)ccc1N [NSC674495] | -21.24%
CN(C)CCOC1(Cc2ccc(F)cc2)CCC(C(C)(C)C)CC1.O=C(O)/C=C/C(=O)O (stereo not drawn) [NSC670226] | -20.67%

SMILES | MEAN CpLDH INHIBITION (%)
CC(C)=CCC1=C(O)c2ccccc2C(=O)C1=O [NSC11905] | -39.26%
O=C1/C(=C/c2ccc([N+](=O)[O-])cc2)Sc2scc(-c3cccc([N+](=O)[O-])c3)[n+]21.[Cl-] [NSC657598] | -68.44%
Cc1ccccc1NC(=O)C(=O)C(C#N)c1ccccc1C (stereo not drawn) [NSC636132] | -58.66%
Cc1ccc(NC(=O)C(=O)CC(=O)c2ccccc2)cc1C [NSC636126] | -16.52%
CCCCCCCCCCSCC(CO)NC(=O)/C=C/c1c(C)[nH]c(=O)[nH]c1=O (stereo not drawn) [NSC265473] | -39.94%
Cc1ccc(CC2(OCCN(C)C)CCC(C(C)(C)C)CC2)cc1.O=C(O)/C=C/C(=O)O (stereo not drawn) [NSC670229] | -52.64%
COc1ccc(C2=Nc3ccccc3SC(C)C2)cc1 (stereo not drawn) [NSC636817] | -5.00%
CCN1CCC(O)(/C=C/c2ccc(C)cc2)C(C(=O)/C=C/c2ccc(C)cc2)C1.Cl (stereo not drawn) [NSC657298] | -42.34%
COc1ccc(/C=C2\Cc3ccccc3C2=O)cc1OC [NSC643174] | -15.39%
Cc1nn(-c2ccccc2)c2c1CC(=O)Nc1ccccc1-2 [NSC662553] | -64.36%
CC(=O)[O][Hg].c1ccc2c(c1)ccc1ccccc12 [NSC534] | -63.87%
C=Cc1cc(OC)c2c(c1)c(=O)oc1c2cc(OC)c2c(O)ccc(C3OC(C)C(O)C(C)(O)C3O)c21 (stereo not drawn) [NSC354844] | -68.14%
Cc1nc(Nc2ccc(Cl)c(Cl)c2)sc1C(/C=C/c1ccc2c(c1)OCO2)=N/Nc1ccc([N+](=O)[O-])cc1[N+](=O)[O-] [NSC640335] | -79.51%
COc1ccc(C2C(C)C(=O)C(C)C(c3ccc(OC)cc3)N2N=O)cc1 (stereo not drawn) [NSC626734] | -0.09%
CCCCCCCCCCCCCCCCCCOP(=O)([O-])OCC[N+](C)(C)C [NSC282880] | -0.05%
S=C=NCc1ccccc1 [NSC118976] | -18.30%
O=C1C=C(NCCc2ccccc2)c2ccccc2C1=O [NSC637731] | -17.56%
Oc1ccc2ccccc2c1N=Nc1cccc2ccccc12 [NSC45575] | -10.08%
Cl.NC1(CCNC(=O)c2ccccc2)CCN(C(=O)c2ccccc2)CC1 [NSC680509] | -41.56%
Cl.O=C1c2cccc(NCCCNCCO)c2C(=O)c2cccc(NCCCNCCO)c21 [NSC363998] | -2.96%
CC(C)c1ccc2nc3ccc(C(=O)NCCN(C)C)cn3c(=O)c2c1 [NSC600305] | -31.37%
CC(C)c1cccc(O)c(=O)c1 [NSC18804] | -36.91%
C[N+](C)(C)CC1CCCC1=O.[I-] (stereo not drawn) [NSC621889] | -0.31%
Nc1nc(N)c2cc(Sc3cccc(C(F)(F)F)c3)ccc2n1 [NSC305782] | -11.03%
Cc1ccc([S+](c2ccccc2)c2cc(C)ccc2C)cc1.O=C(OC(C(=O)[O-])C(OC(=O)c1ccccc1)C(=O)O)c1ccccc1 (stereo not drawn) [NSC116693] | -151.85%
CC(=O)c1ccc(Oc2ccc(/C(C)=N\N=C(N)N)cc2)cc1.O=[N+]([O-])O [NSC97911] | -11.97%

SMILES | MEAN CpLDH INHIBITION (%)
[Mo] [NSC622116] | -10.74%
CN(C)c1ccc(/C=C2\CCc3ccccc3C2=O)cc1Br [NSC643162] | -31.17%
COc1ccc2c(c1)CCc1c-2n[nH]c1-c1[nH]nc2c1CCc1cc(OC)ccc1-2 [NSC371846] | -16.04%
O=C(NCCCCCCCCNC(=O)c1cccc2ccccc12)c1cccc2ccccc12 [NSC629738] | -0.22%
CC(C)=CC1C(C(=O)O)C1(C)C (stereo not drawn) [NSC11779] | -22.15%
CC1(C)C(O)OC(O)C1(C)C (stereo not drawn) [NSC614928] | -7.87%
Cl.NC(=O)c1cn(C2OC(CO)C(O)C2O)c2ncnc(N)c12 (stereo not drawn) [NSC143648] | -33.40%
C[C@@H](N)C(=O)NC(CO)C(O)C(N)C=O.Cl (stereo partly drawn) [NSC278619] | -43.32%
C=C1C(=O)OCC2C(C(=O)O)=CC3C(C)C(C)=CC123 (stereo not drawn) [NSC145150] | -64.31%
CC1=C(N2CC2)C(=O)c2nc3n(c2C1=O)CCC3OC(=O)CCl (stereo not drawn) [NSC651080] | -28.90%
CC1Oc2cc3c(-c4c(O)cc(O)c5c(O)c6c(cc45)OC(C)C(C)C6=O)c(O)cc(O)c3c(O)c2C(=O)C1C (stereo not drawn) [NSC345647] | -176.19%
CC1=C(C(=O)NCc2ccccc2)C(c2ccccc2O)C(C(=O)NCc2ccccc2)=C(C)N1 [NSC634928] | -21.25%
CNc1nc(N(C)C)nc(N(C)C)n1 [NSC118742] | -28.34%
C=C(C)[C@@H]1CC[C@]2(CO)CC[C@]3(C)[C@H](CC[C@@H]4[C@@]5(C)CC[C@H](O)C(C)(C)[C@@H]5CC[C@]43C)[C@@H]12 [NSC4644] | -25.29%
O=C1Oc2ccccc2C(=O)/C1=C1\C=C(c2ccccc2)SS1 [NSC293927] | -15.46%
Clc1ccc(-c2c(C3=NCCCN3)nnn2-c2ccc(Cl)cc2)cc1 [NSC645033] | -3.66%
CC(C)C1=CC2=CC[C@@H]3[C@](C)(CCC[C@@]3(C)C(=O)O)[C@H]2CC1 [NSC25149] | -16.60%
S=C(Nc1ccccc1)N(/N=C/C=C/c1ccccc1)c1nnc(-c2ccccc2)c(-c2ccccc2)n1 [NSC640637] | -17.02%
Cc1c(C(=O)C/C(=N\O)C(=O)Nc2cc(Cl)c(Cl)cc2Cl)[n+](=O)c2ccccc2n1[O-] [NSC635544] | -233.40%
CCCCCCCCCCCCCCCC[N+](C)(C)Cc1ccc(F)cc1.[Cl-] [NSC693172] | -0.60%
NC1(C(=O)O)CCCC1 [NSC1026] | -29.26%
CC[C@@]1(O)C[C@H](O[C@H]2C[C@H](N(C)C)[C@H](O)[C@H](C)O2)c2c(O)c3c(c(O)c2[C@H]1O[C@H]1C[C@H](N(C)C)[C@H](O)[C@H](C)O1)C(=O)c1cccc(O)c1C3=O [NSC136044] | -159.43%
Nc1nc(-c2cccs2)cs1 [NSC54297] | -31.48%
COc1ccc2c(c1[N+](=O)[O-])CC[C@@H]1[C@@H]2CC[C@]2(C)C(=O)CC[C@@H]12 [NSC321803] | -29.51%
O=C1CCC(c2ccccc2)=NN1c1nc2ccccc2s1 [NSC629659] | -32.05%
COc1cc(/C=C(\C)c2ccc3c(c2)OCO3)cc(OC)c1OC [NSC648422] | -69.44%
